Measured values published in patent publication US20240300902A1, “NOVEL TRANSGLUTAMINASE 2 INHIBITOR AND USE THEREOF” (MD BIOLAB CO., LTD., priority 2021, published 2024).

What was measured:
MDA-MB-231 cells = assay: Protein expression level change in TNBC breast cancer cells according to treatment time, western blot; assay type: cell-based; conditions: MDA-MB-231, 24, 48 and 72 hours
[1] = Toxicity by single oral administration; assay type: in vivo, ICR mice; conditions: 500 to 2000 mg/kg
Experimental: LDD3959 was orally administered once for each concentration in the range of 500 to 2000 mg/kg, and adverse events (body weight changes, feed intake changes, general appearance changes) were checked for 2 weeks. After 2 weeks of administration, the mice were sacrificed. Then, the mice underwent hematological examination and measurement of weight change of each organ thereof. In addition, the same experiment was performed on five ICR female mice and five ICR male mice to identify gender-dependent differences.

ACHN cells [2] = assay: Expression of cell proliferation inhibition-related and angiogenesis inhibition-related proteins, western blot; assay type: cell-based; conditions: various concentrations, 48 hours
Experimental: LDD3959 treatment at various concentrations was performed on ACHN cells, using a serum-free culture medium, and a reaction was performed at 37° C. in the presence of 5% CO2 for 2 hours. The culture medium was replaced with a culture medium containing 10% FBS, and a reaction was performed for 48 hours. The culture medium was removed, and PBS washing was performed. With the use of a solution obtained by adding a protease inhibitor cocktail and a phosphatase inhibitor cocktail to RIPA buffer (25 mM Tris*HCl pH 7.6, 150 mM NaCl, 1% NP-40, 1% sodium deoxycholate, and 0.1% SDS) was used to prepare whole cell lysates.
The proteins were quantified by Bicinchoninic acid (BCA) protein assay. The proteins were resolved by SDS-PAGE and transcribed into a polyvinylidene difluoride (PVDF) membrane. The membrane was then blocked with 5% BSA for 1 hour at room temperature, allowed to react with a labeled antibody overnight at 4° C., washed in PBS-T for 30 minutes at room temperature, and allowed to react with a horseradish peroxidase (HRP)-bound secondary antibody for 2 hours at room temperature. Finally, the membrane was washed in PBS-T for […] at room temperature and developed with enhanced chemiluminescence.

[3] = Toxicity by 3-week DRF oral administration; assay type: in vivo, ICR mice; conditions: once a day for 3 weeks, 500 to 2000 mg/kg
Experimental: LDD3959 was administered once a day for 3 weeks at each concentration (in the range of 500 to 2000 mg/kg), adverse events during the course of administration were checked, and the subjects were sacrificed the next day after the end of administration to perform weight measurement, hematological analysis, and biochemical analysis for each organ. In addition, the same experiment was performed on five ICR female mice and five ICR male mice to identify gender-dependent differences.

[4] = tested on: CAKI-1 renal cancer cells; assay: Antitumor effect in in vivo renal cancerous tumors, CAKI-1 xenograft, intraperitoneal administration; design: species or system mice
Experimental: (§1) To examine the antitumor effect of LDD3959, CanN.Cg-Foxn1nu/CrljOri mice were used as experimental animals. The mice were xenografted with ACHN renal cancer cells or CAKI-1 renal cancer cells to induce tumors. The ACHN renal cancer cell-transplanted group was orally administered with LDD3959, and the CAKI-1-transplanted group was intraperitoneally administered with LDD3959. In this test, the oral administration was performed daily and the intraperitoneal administration was performed twice a week.

ACHN cells [5] = assay: Preclinical xenograft tumor model (ACHN, BALB/c nude mice); assay type: in vivo; conditions: 1 mg/kg or 10 mg/kg PO once daily, 5 days per week
Experimental: Six-week-old male-specific, pathogen-free BALB/c nude mice (n=20) were purchased from the central lab (Animal Inc., Seoul, Korea). Each mouse was injected subcutaneously with ACHN cells (5.0×10^6 cells/each). When tumors reached an appropriate size (100 to 150 mm^3 for ACHN), mice were randomly selected and classified into 4 groups (n=4 to 5) according to the volume and weight of the tumor: The control group was untreated; the streptonigrin-treated group was administered in an amount of 0.2 mg/kg; and the LDD3959-treated group was administered in an amount of 1 mg/kg or 10 mg/kg. The streptonigrin and LDD3959 were orally administered to each treatment group, once daily for 5 days per week. For tumor identification, the mice were euthanized with 7.5% CO2 and the tumors were recovered for immunohistochemical analysis. The tumor volume was calculated according to the following equation: V=(A×B×B)/2 where V is the volume (mm^3), A is the long diameter (mm), and B is the short diameter (mm). The experiment was reviewed and approved by the Institutional Animal Care and Use Committee (IACUC) of the National Cancer Center Research Institute (NCCRI). […]

[6] = tested on: MDA-MB231 breast cancer cells; assay: Antitumor effects in in vivo breast cancerous tumors, MDA-MB231 xenograft; design: species or system mice
Experimental: To examine the antitumor effect of LDD3959, CanN.Cg-Foxn1nu/CrljOri mice were used as experimental animals. The mice were xenografted with MDA-MB231 breast cancer cells to induce tumors. The MDA-MB231 breast cancer cell-transplanted group was divided into two groups: an oral administration group and an intraperitoneal administration group. In this test, the oral administration was performed daily and the intraperitoneal administration was performed twice a week.

[7] = tested on: MDA-MB231 breast cancer cells; assay: Cell viability in breast cancer cell lines according to treatment time; assay type: cell-based; conditions: MDA-MB231, 24, 48 and 72 hours
Experimental: Breast cancer cells (50,000 cells/well, 100 μl) were cultured in 96-well microplates, and after 24 hours, LDD3959 was added to each well in various concentrations, using a serum-free cell culture medium. In each well, a reaction was performed at 37° C. in the presence of 5% CO2 for 2 hours.
Next, the existing culture medium was replaced with a culture medium containing 10% FSB, and 24, 48, and 72 hours of reactions were performed. After the completion of each reaction, the exiting culture medium was removed, a culture medium containing a water soluble tetrazolium (WST) salt was added, the plate was allowed to react at 37° C. in the presence of 5% CO2 for a duration in the range of 1 hour to 3 hours, and the absorbance was measured at 450 nm.

ACHN renal cancer cells = assay: Antitumor effect in in vivo renal cancerous tumors, ACHN xenograft, oral administration; design: species or system mice; conditions: oral administration daily
Experimental: as §1

With `O=C1C(Cl)=C(Cl)C(=O)c2[nH]c(-c3ccc(Br)c(F)c3)nc21` [LDD3959, 2-(4-bromo-3-fluorophenyl)-5,6-dichloro-1H-benzo[d]imidazole-4,7-dione] the AKT/mTOR signals (MDA-MB-231 cells) was “AKT/mTOR signals were inhibited”, the NFκB complexes (MDA-MB-231 cells) was “NFκB complexes were inhibited” and the deaths ([1]; 2 weeks, female and male ICR mice) was “no deaths of the subjects occurred”. For the same compound, the “adverse responses in blood” value ([1]; after 2 weeks) was “no specific adverse responses occurred in blood”, the Akt/mTOR signals (ACHN cells [2]) was “inhibiting Akt/mTOR45 signals” and the NFκB complexes (ACHN cells [2]) was “inhibiting NFκB complexes”. The adverse events [3] was “no specific adverse events occurred”, the “hematological and biochemical tests” value [3] was “no probable adverse events” and the deaths ([3]; female and male ICR mice) was “no deaths of the subjects occurred”. For the same compound, the “tumor growth inhibitory effect” value ([4]; CAKI-1 xenograft, intraperitoneal administration twice a week) was “concentration-dependent tumor growth inhibitory effects”, the hematological examination ([4]; intraperitoneal administration group) was “no abnormal findings” and the “tumor volume increase rate” value (ACHN cells [5]) was “tumor volume increase rate decreased as the LDD3959 dose increased”. The antitumor effect ([6]; intraperitoneal administration twice a week) was “concentration-dependent antitumor effects”, the antitumor effect ([6]; oral administration daily) was “concentration-dependent antitumor effects” and the “apoptosis level according to time” value [7] was “exhibited a low apoptosis level at the initial stage, but the apoptosis level increased”. For the same compound, the “tumor growth inhibitory effect” value (ACHN renal cancer cells) was “concentration-dependent tumor growth inhibitory effects”.
